ChEMBL document CHEMBL1201862, “PubChem BioAssay data set” (2004)
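Cultured in 96-well plates, cells were exposed to test compound for 48 hours across five concentrations. GI50 marks 50% less growth.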 Calls of active or inactive are those of the source. Rule as the data show it: active = GI50 up to about 1.1 µM and inactive = higher.

Tests used:
Assay in all cases: NCI-60 cell line screen, 48 h
[1] = test system: A498
[2] = test system: A549
[3] = test system: COLO 205
[4] = test system: DU-145
[5] = test system: HOP-62
[6] = test system: IGROV-1
[7] = test system: M14
[8] = test system: MDA-MB-231
[9] = test system: NCI-H522
[10] = test system: NCI/ADR-RES
[11] = test system: OVCAR-3
[12] = test system: OVCAR-5
[13] = test system: SF-539
[14] = test system: SK-MEL-5
[15] = test system: SR
[16] = test system: SW-620
[17] = test system: TK-10
[18] = test system: UO-31
[19] = test system: SNB-19
[20] = test system: Malme-3M

Compound | GI50 [1] | GI50 [2] | GI50 [3] | GI50 [4] | GI50 [5] | GI50 [6] | GI50 [7] | GI50 [8] | GI50 [9] | GI50 [10] | GI50 [11] | GI50 [12] | GI50 [13] | GI50 [14] | GI50 [15] | GI50 [16] | GI50 [17] | GI50 [18] | GI50 [19] | GI50 [20]
COc1ccc(-n2c(=O)c3nc(S)[nH]c3n(-c3ccc(OC)cc3)c2=S)cc1 | > 100 µM (inactive) | > 100 µM (inactive) | > 100 µM (inactive) | > 100 µM (inactive) | > 100 µM (inactive) | > 100 µM (inactive) | > 100 µM (inactive) | > 100 µM (inactive) | 57.4 µM (inactive) | > 100 µM (inactive) | > 100 µM (inactive) | > 100 µM (inactive) | > 100 µM (inactive) | > 100 µM (inactive) | > 100 µM (inactive) | > 100 µM (inactive) | > 100 µM (inactive) | > 100 µM (inactive) |  | 
CS(=O)(=O)c1nc(-c2cc3c(c(S(C)(=O)=O)n2)CCC3)cc2c1CCCC2 |  | > 100 µM (inactive) | > 100 µM (inactive) | > 100 µM (inactive) | 24.1 µM (inactive) | 18.3 µM (inactive) | > 100 µM (inactive) | 38.9 µM (inactive) | 17 µM (inactive) | 48.6 µM (inactive) | > 100 µM (inactive) | > 100 µM (inactive) | 49.3 µM (inactive) | > 100 µM (inactive) |  | > 100 µM (inactive) | 64.9 µM (inactive) | 7.71 µM (inactive) | 32.4 µM (inactive) | 
Cc1c(C#N)c(=N)oc2ccccc12 | > 100 µM (inactive) | > 100 µM (inactive) | > 100 µM (inactive) | > 100 µM (inactive) | 88.9 µM (inactive) | > 100 µM (inactive) | > 100 µM (inactive) | > 100 µM (inactive) |  | > 100 µM (inactive) | > 100 µM (inactive) | > 100 µM (inactive) | > 100 µM (inactive) | > 100 µM (inactive) |  | > 100 µM (inactive) | > 100 µM (inactive) | > 100 µM (inactive) | > 100 µM (inactive) | > 100 µM (inactive)
Cc1ccccc1-n1c(=O)nc2n(-c3ccc(C(C)(C)C)cc3)c3ccccc3cc-2c1=O | 30.5 µM (inactive) | 31.3 µM (inactive) | 18.5 µM (inactive) | 21.1 µM (inactive) | 20.2 µM (inactive) | 24.3 µM (inactive) | 17.7 µM (inactive) | 19 µM (inactive) | 21.7 µM (inactive) | 16.7 µM (inactive) | 18.4 µM (inactive) | 25.9 µM (inactive) | 17.8 µM (inactive) | 15.1 µM (inactive) | 30.1 µM (inactive) | 15.9 µM (inactive) | 37.7 µM (inactive) | 26.4 µM (inactive) | 21.5 µM (inactive) | 
CCOC(=O)C(NC(=O)c1cccc(Cl)c1)(Nc1cccc(C)c1)C(F)(F)F (configuration not stated) |  | 32 µM (inactive) | 20.1 µM (inactive) | 29.3 µM (inactive) | 17.7 µM (inactive) | 12.8 µM (inactive) |  | 19.4 µM (inactive) | 5.26 µM (inactive) | 15.9 µM (inactive) |  |  | 17.9 µM (inactive) | 16.1 µM (inactive) | 28.7 µM (inactive) | 16.4 µM (inactive) | 29.8 µM (inactive) | 15.1 µM (inactive) | 35.9 µM (inactive) | 16.6 µM (inactive)
CCc1ccc2oc(-c3cc(O)c(-c4nc5cc(CC)ccc5o4)cc3O)nc2c1 | > 100 µM (inactive) | > 100 µM (inactive) | > 100 µM (inactive) | > 100 µM (inactive) | > 100 µM (inactive) | > 100 µM (inactive) | > 100 µM (inactive) | > 100 µM (inactive) |  | > 100 µM (inactive) |  | > 100 µM (inactive) | > 100 µM (inactive) | > 100 µM (inactive) | > 100 µM (inactive) | > 100 µM (inactive) | > 100 µM (inactive) | > 100 µM (inactive) | > 100 µM (inactive) | 
COC(=O)C1c2cc3c(cc2C(OC2OC(C)C(OC)C(C)(OC)C2OC)CC1(C)O)C(=O)c1c(O)cc2c(c1C3=O)OC1OC2(C)C(O)C([N+](C)(C)[O-])C1O (configuration not stated) | 0.184 µM (active) | 0.227 µM (active) | 0.0634 µM (active) | 0.275 µM (active) | 0.336 µM (active) | 0.0791 µM (active) | 0.482 µM (active) | 0.469 µM (active) | 0.055 µM (active) |  | 0.658 µM (active) | 1.48 µM (inactive) | 0.0883 µM (active) | 0.0776 µM (active) | 0.305 µM (active) | 0.0845 µM (active) | 2.83 µM (inactive) | 1.19 µM (inactive) | 0.126 µM (active) | 0.0581 µM (active)
Cc1cccc(N2CCN(S(=O)(=O)c3ccc(Cl)cc3)C2=N)c1C | > 100 µM (inactive) | > 100 µM (inactive) | > 100 µM (inactive) | 93.3 µM (inactive) |  | 25.1 µM (inactive) | > 100 µM (inactive) | > 100 µM (inactive) |  | > 100 µM (inactive) |  | > 100 µM (inactive) | > 100 µM (inactive) | > 100 µM (inactive) | 18.1 µM (inactive) | > 100 µM (inactive) | > 100 µM (inactive) | 47.9 µM (inactive) | > 100 µM (inactive) | 
c1ccc(-c2cc(-c3ccccc3)nc(-c3ccncc3)c2)cc1 |  | > 100 µM (inactive) | > 100 µM (inactive) | > 100 µM (inactive) | 16.1 µM (inactive) | 25.9 µM (inactive) | 42.4 µM (inactive) | 97.5 µM (inactive) | > 100 µM (inactive) | > 100 µM (inactive) | > 100 µM (inactive) | > 100 µM (inactive) |  | 57.1 µM (inactive) | > 100 µM (inactive) | > 100 µM (inactive) | 40.4 µM (inactive) | > 100 µM (inactive) | 53.8 µM (inactive) | > 100 µM (inactive)
COc1cc(C(c2c(O)c3ccccc3oc2=O)c2c(O)c3ccccc3oc2=O)ccc1O | 51.9 µM (inactive) | 59.7 µM (inactive) | 17.2 µM (inactive) | 21.6 µM (inactive) | 44.4 µM (inactive) | 11.3 µM (inactive) | 18.1 µM (inactive) | 21.1 µM (inactive) | 20.8 µM (inactive) | 28.6 µM (inactive) | 19.5 µM (inactive) | 18.7 µM (inactive) | 23.3 µM (inactive) | 15.7 µM (inactive) |  | 23.7 µM (inactive) | 20.3 µM (inactive) | 25.1 µM (inactive) | 26.8 µM (inactive) | 19 µM (inactive)
C1=C2C3=[N+](CCCC3)CC2Cc2ccsc21 (configuration not stated) | 52.8 µM (inactive) | 25 µM (inactive) | > 100 µM (inactive) | > 100 µM (inactive) | > 100 µM (inactive) | > 100 µM (inactive) | 71.3 µM (inactive) | > 100 µM (inactive) | 62.8 µM (inactive) | > 100 µM (inactive) | 84.1 µM (inactive) | > 100 µM (inactive) |  | 66.5 µM (inactive) |  | > 100 µM (inactive) | 87.7 µM (inactive) | > 100 µM (inactive) | 56.2 µM (inactive) | 63 µM (inactive)
C1C2CC3CC1CC(Nc1nc(NC45CC6CC(CC(C6)C4)C5)nc(NC45CC6CC(CC(C6)C4)C5)n1)(C2)C3 | > 51.4 µM (inactive) | > 53 µM (inactive) | 28.7 µM (inactive) | 42 µM (inactive) | > 36.5 µM (inactive) |  | 44 µM (inactive) | > 100 µM (inactive) |  | 9.31 µM (inactive) | > 23.6 µM (inactive) | > 92.3 µM (inactive) | > 100 µM (inactive) | 14.3 µM (inactive) | 51.2 µM (inactive) | 79.4 µM (inactive) | > 60 µM (inactive) | > 38.3 µM (inactive) | 43.5 µM (inactive) | > 100 µM (inactive)
COc1cccc(O)c1-c1cc(=O)c2c(O)c(OC)c(OC)c(OC)c2o1 [SKULLCAPFLAVONE II] |  | 29 µM (inactive) | 16.5 µM (inactive) | 16.4 µM (inactive) | 17.5 µM (inactive) | 24.2 µM (inactive) | 23.5 µM (inactive) | 41 µM (inactive) | 22.7 µM (inactive) | 21.8 µM (inactive) | 22.5 µM (inactive) | 50.9 µM (inactive) | 36.8 µM (inactive) | 19 µM (inactive) | 4.82 µM (inactive) | 31.8 µM (inactive) | 44.8 µM (inactive) | 25.2 µM (inactive) | 29.2 µM (inactive) | 36.4 µM (inactive)
COC(=O)[C@H](Cc1c[nH]c2ccccc12)NP(=O)(O)OC[C@H]1O[C@@H](n2cc(C)c(=O)[nH]c2=O)C[C@@H]1N=[N+]=[N-] |  | > 100 µM (inactive) | > 100 µM (inactive) | > 100 µM (inactive) | > 100 µM (inactive) | > 100 µM (inactive) | > 100 µM (inactive) | > 100 µM (inactive) | > 100 µM (inactive) | > 100 µM (inactive) | > 100 µM (inactive) | > 100 µM (inactive) |  | > 100 µM (inactive) |  | > 100 µM (inactive) | > 100 µM (inactive) | > 100 µM (inactive) | > 100 µM (inactive) | > 100 µM (inactive)
Cc1c2c(OCC3CCCCO3)nn(C)c(=O)c2c(C)n1-c1ccccc1 (configuration not stated) | 14.9 µM (inactive) | 17.5 µM (inactive) | 17.4 µM (inactive) | 17.7 µM (inactive) | 19.2 µM (inactive) | 18.4 µM (inactive) | 19.1 µM (inactive) | 17.7 µM (inactive) | 17 µM (inactive) | 21.3 µM (inactive) | 16.7 µM (inactive) | 17.4 µM (inactive) | 20 µM (inactive) | 15.1 µM (inactive) |  |  | 20.6 µM (inactive) | 16.6 µM (inactive) | 21.7 µM (inactive) | 18.7 µM (inactive)
